Experimental findings from publication PMC8799717, “Pharmacological targeting PIKfyve and tubulin as an effective treatment strategy for double-hit lymphoma” (Cell Death Discovery, 2022) are described below.

Some targets named below: CSNK1G2 (Homo sapiens, UniProt P78368); KIT(V559D) (Homo sapiens, UniProt P10721, V559D); TSSK3 (Homo sapiens, UniProt Q96PN8); BMPR1B (Homo sapiens, UniProt O00238); CAMK4 (Homo sapiens, UniProt Q16566); ERBB2 (Homo sapiens, UniProt P04626); TAOK1 (Homo sapiens, UniProt Q7L7X3); NEK6 (Homo sapiens, UniProt Q9HC98); CSNK1D (Homo sapiens, UniProt P48730); PIK3C2G (Homo sapiens, UniProt O75747); PIK3CA(E545A) (Homo sapiens, UniProt P42336, E545A); ERBB4 (Homo sapiens, UniProt Q15303); PIK3C2B (Homo sapiens, UniProt O00750); MAP3K3 (Homo sapiens, UniProt Q99759); IRAK3 (Homo sapiens, UniProt Q9Y616); FLT3(ITD,F691L) (Homo sapiens, UniProt P36888, F691L/ITD); KIT(D816V) (Homo sapiens, UniProt P10721, D816V); CAMK2G (Homo sapiens, UniProt Q13555).

Assay in all cases: biochemical
Common to all, as to parameters: KINOMEscan active-site-directed competition binding panel, 468 kinases, percent of DMSO control at 1 uM
What all share (conditions): KINOMEscan binding, percent of DMSO control; read-out: Ctrl%

The next test concerns the target T1, ABL1-phosphorylated (Homo sapiens, UniProt P00519).
T1 construct: phosphorylated

For test [1], the target named is T2, JAK1(JH2domain-pseudokinase) (Homo sapiens, UniProt P23458).
T2 construct: JH2domain-pseudokinase
T2 sequence (P23458 whole entry): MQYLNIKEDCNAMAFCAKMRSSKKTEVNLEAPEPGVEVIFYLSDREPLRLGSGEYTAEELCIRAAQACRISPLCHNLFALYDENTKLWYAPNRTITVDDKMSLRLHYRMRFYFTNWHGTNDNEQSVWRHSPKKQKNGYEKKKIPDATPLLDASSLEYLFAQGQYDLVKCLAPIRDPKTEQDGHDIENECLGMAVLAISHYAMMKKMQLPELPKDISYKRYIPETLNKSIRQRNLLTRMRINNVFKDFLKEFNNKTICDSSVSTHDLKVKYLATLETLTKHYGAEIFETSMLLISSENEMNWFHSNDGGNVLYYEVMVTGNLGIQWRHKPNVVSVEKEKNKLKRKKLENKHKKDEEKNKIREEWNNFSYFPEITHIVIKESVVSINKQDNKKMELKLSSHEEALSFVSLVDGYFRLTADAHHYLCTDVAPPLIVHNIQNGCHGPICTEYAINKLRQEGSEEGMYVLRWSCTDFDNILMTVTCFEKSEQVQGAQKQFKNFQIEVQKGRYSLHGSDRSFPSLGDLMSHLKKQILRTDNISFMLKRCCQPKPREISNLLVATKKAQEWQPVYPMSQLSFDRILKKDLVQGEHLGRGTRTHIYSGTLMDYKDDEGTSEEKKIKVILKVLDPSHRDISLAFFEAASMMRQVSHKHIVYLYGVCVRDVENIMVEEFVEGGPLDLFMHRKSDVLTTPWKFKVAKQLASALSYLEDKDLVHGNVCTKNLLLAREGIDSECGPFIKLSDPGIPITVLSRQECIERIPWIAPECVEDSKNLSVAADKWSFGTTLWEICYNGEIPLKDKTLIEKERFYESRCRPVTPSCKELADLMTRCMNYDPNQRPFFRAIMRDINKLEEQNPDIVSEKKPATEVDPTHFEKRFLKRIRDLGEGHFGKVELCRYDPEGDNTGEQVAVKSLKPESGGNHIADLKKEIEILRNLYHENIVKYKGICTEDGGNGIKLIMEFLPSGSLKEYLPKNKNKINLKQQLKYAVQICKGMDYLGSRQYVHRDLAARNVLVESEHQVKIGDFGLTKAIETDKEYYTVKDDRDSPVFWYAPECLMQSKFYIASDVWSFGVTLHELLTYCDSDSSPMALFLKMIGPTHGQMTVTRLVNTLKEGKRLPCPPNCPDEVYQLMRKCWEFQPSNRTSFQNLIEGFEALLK

In test [2] the target is T3, ABL1(T315I)-nonphosphorylated (Homo sapiens, UniProt P00519, T315I).
T3 construct: nonphosphorylated

The next test has as its target T4, MLCK (Homo sapiens, UniProt Q32MK0).
T4 construct: gene MYLK3

The next test addresses T5, DCAMKL1 (Homo sapiens, UniProt O15075).
T5 construct: gene DCLK1

The target of another test is T6, ERK5 (Homo sapiens, UniProt Q13164).
T6 construct: gene MAPK7

Sequence of PIK3C2G (O75747 whole entry): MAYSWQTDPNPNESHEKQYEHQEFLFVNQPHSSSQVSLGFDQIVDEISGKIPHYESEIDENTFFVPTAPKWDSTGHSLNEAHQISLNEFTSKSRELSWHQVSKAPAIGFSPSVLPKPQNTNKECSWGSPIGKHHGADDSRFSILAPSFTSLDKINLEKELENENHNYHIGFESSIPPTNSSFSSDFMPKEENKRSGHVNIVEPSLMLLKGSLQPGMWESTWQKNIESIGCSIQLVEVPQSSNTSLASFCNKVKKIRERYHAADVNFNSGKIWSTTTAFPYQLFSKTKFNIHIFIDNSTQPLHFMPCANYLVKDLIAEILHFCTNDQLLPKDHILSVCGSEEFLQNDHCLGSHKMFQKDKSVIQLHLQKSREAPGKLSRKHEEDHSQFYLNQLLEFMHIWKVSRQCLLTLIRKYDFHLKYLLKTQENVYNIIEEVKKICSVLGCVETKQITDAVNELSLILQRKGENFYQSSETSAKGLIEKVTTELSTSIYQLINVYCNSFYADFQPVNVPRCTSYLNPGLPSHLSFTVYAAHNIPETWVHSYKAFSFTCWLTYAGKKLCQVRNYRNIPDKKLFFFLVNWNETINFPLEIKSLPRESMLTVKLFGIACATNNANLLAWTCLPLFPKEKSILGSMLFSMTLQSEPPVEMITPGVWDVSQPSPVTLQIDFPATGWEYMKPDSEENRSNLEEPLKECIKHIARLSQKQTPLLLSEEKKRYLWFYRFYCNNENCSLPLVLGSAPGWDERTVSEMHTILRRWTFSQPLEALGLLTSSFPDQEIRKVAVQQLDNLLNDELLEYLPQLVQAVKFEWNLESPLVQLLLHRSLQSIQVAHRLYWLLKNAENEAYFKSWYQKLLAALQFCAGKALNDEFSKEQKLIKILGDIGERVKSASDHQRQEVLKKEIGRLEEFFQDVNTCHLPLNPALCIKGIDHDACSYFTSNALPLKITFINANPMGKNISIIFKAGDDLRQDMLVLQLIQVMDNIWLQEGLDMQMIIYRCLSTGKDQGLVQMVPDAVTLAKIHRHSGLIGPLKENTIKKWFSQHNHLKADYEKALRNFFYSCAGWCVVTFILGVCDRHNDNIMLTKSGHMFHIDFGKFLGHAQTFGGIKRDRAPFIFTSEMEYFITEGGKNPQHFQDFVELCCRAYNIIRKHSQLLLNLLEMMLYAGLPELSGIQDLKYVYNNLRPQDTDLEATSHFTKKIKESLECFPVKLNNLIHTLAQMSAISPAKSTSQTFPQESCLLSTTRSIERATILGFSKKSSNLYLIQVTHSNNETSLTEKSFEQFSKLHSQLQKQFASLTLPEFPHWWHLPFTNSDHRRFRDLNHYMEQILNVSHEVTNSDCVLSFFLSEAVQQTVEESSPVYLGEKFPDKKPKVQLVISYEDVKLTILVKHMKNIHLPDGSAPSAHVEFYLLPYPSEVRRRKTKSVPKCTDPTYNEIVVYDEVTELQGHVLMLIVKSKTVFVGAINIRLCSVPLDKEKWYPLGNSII
Sequence of ERBB4 (Q15303 whole entry): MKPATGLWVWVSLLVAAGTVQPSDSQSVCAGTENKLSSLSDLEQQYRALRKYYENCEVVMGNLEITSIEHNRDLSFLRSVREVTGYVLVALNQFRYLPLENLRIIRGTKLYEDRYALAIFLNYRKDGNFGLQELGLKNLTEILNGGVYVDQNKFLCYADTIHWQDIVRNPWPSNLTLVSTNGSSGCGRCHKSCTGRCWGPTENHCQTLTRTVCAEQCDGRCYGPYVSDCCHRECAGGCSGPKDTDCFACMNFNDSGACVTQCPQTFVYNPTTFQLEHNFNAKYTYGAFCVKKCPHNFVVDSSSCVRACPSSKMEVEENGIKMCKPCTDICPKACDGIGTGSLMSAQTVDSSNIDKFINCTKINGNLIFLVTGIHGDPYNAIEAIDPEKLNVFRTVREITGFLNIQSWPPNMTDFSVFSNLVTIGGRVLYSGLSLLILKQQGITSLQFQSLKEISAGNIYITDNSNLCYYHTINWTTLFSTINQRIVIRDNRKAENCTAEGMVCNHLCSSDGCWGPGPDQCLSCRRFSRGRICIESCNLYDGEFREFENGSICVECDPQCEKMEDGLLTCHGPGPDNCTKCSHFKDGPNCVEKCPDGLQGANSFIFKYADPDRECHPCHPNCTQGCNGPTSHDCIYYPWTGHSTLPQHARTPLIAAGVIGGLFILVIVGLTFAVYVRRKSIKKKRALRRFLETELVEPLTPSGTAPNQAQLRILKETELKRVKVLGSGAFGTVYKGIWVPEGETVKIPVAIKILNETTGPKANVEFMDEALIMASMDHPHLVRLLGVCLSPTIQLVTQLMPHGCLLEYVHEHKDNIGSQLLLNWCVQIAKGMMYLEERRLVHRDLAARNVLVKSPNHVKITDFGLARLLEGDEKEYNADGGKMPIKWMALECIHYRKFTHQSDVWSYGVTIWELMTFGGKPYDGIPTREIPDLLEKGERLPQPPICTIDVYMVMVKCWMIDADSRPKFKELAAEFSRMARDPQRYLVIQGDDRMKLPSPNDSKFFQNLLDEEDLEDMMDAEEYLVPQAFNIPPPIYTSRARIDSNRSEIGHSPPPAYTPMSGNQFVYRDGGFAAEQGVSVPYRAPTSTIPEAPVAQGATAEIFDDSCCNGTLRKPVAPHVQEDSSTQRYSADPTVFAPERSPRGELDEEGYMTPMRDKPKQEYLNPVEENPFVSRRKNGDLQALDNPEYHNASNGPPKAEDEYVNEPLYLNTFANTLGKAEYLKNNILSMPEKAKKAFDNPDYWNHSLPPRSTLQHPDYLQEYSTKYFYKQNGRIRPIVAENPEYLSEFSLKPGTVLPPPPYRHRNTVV
Sequence of BMPR1B (O00238 whole entry): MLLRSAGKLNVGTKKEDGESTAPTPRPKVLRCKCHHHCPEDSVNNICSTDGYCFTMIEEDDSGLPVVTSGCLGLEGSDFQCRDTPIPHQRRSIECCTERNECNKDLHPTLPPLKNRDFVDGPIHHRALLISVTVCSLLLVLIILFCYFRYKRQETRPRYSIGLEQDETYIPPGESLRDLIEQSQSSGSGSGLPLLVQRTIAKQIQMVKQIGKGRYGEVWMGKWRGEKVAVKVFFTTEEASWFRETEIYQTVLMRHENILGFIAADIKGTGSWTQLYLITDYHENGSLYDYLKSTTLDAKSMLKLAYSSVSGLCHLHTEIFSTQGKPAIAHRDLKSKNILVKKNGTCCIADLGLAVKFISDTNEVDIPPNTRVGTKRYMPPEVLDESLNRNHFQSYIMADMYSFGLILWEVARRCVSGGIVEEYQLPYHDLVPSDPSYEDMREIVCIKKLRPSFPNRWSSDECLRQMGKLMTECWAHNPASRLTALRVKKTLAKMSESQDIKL
Sequence of CSNK1G2 (P78368 whole entry): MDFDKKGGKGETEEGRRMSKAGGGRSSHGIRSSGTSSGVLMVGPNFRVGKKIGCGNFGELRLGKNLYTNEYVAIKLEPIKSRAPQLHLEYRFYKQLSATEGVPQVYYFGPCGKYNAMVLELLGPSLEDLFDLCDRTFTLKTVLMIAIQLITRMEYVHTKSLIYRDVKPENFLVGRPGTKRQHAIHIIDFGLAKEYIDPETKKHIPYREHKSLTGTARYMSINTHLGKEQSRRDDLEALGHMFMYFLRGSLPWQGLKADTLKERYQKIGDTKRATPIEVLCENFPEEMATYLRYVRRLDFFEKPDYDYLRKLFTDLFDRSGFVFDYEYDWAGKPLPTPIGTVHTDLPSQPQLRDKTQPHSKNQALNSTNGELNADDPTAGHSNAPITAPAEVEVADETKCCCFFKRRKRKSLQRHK

As to `Cc1ccc(NC(=O)c2cccc(C(F)(F)F)c2)cc1Nc1cc(-c2cccnc2)nc2[nH]ccc12` [HZX-02-059], the remaining binding at 1 µM turned out to be 55% at ABL1-phosphorylated; 96% at CSNK1G2; 64% in test [1]; 0.9% at KIT(V559D); 100% on TSSK3; 91% at BMPR1B. Moreover, the remaining binding at 1 µM in test [2] came out at 77%; on CAMK4, 83%; on MLCK, 100%; on ERBB2, 95%; at TAOK1, 100%; at NEK6 it was 98%. Further, the remaining binding at 1 µM came out at 96% at CSNK1D; 86% at PIK3C2G; 88% at PIK3CA(E545A); 86% at ERBB4; 100% on PIK3C2B; 89% on MAP3K3. In addition, the remaining binding at 1 µM stood at 92% on IRAK3; 93% on DCAMKL1; 100% on FLT3(ITD,F691L); 99% on ERK5; 93% at KIT(D816V); 97% on CAMK2G.
